# Measurements as given in patent EP3770254A1, “LIQUID P[…] TRANSGLUTAMINASE” (AJINOMOTO CO., INC., priority 2018, dated 2019).
# Where a name gives a salt, the structure may show the parent alone.
# Molecular target: T1, transglutaminase (Streptomyces mobaraensis, UniProt P81453)
# Assay: Experimental Example 1: accelerated test by high temperature storage, transglutaminase activity by hydroxamate method
# Format: physicochemical, microorganism
# Details: conclusion of Experimental Example 1; additive 10 wt%, 44°C 24 hr
# Method: The enzyme activity of transglutaminase can be measured and calculated by, for example, the hydroxamate method. That is, benzyloxycarbonyl-L-glutaminyl glycine is reacted with hydroxylamine as a substrate to form an iron complex of hydroxamic acid formed in the aforementioned reaction in the presence of trichloroacetic acid, the absorbance at 525 nm is measured, and the amount of hydroxamic acid produced is determined from the calibration curve, whereby the enzyme activity can be calculated.
# The stability of transglutaminase in each liquid preparation of the above-mentioned Examples 1 - 5 and Comparative Example 1 was evaluated by an accelerated test by high temperature storage as follows.
# Respective liquid preparations of the above-mentioned Examples 1 - 5 and Comparative Example 1 were stored at 4°C and 44°C for 24 hr, and the transglutaminase activity in the liquid preparation was measured by the above-mentioned hydroxamate method.
# A liquid preparation obtained by dissolving only transglutaminase in a phosphate buffer was used as a control and treated in the same manner.
# T1 sequence (P81453 77-407): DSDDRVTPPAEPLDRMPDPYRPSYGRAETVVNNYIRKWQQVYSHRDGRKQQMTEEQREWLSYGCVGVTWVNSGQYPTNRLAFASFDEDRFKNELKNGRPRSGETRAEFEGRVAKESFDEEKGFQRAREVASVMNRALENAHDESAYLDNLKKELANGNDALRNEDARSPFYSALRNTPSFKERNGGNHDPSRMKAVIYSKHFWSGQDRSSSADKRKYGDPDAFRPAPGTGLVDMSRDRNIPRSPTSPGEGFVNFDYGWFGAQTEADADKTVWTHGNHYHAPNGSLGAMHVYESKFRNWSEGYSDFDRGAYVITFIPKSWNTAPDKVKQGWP
row,Compound,transglutaminase stabilizing effect in a liquid preparation
1,"NCC(=O)O [glycine, 2-aminoacetic acid]",has a transglutaminase stabilizing effect
2,"Cl.NCCCC[C@H](N)C(=O)O [lysine hydrochloride, reference compound]",not found
3,"O=C(O)C1CCCN1 (stereo not drawn) [proline, pyrrolidine-2-carboxylic acid]",has a transglutaminase stabilizing effect
4,"NC(CO)C(=O)O (stereo not drawn) [serine, 2-amino-3-hydroxypropionic acid]",has a transglutaminase stabilizing effect
5,N[C@@H](CC(=O)[O-])C(=O)[O-].[Na+].[Na+] [sodium aspartate],has a transglutaminase stabilizing effect
6,N[C@@H](CCC(=O)[O-])C(=O)[O-].[Na+].[Na+] [sodium glutamate],has a transglutaminase stabilizing effect

# Molecular target: T1, transglutaminase
# Assay: not given
# Details: conclusion of Experimental Example 4; organic acid salt 10 wt%, 44°C 24 hr
row,Compound,stabilization of transglutaminase
1,CC(=O)O [sodium acetate],can also stabilize transglutaminase
2,O=C(O)CC(O)(CC(=O)O)C(=O)O [sodium citrate],can also stabilize transglutaminase
3,O=C([O-])[C@H](O)[C@@H](O)[C@H](O)[C@H](O)CO.[Na+] [sodium gluconate],can also stabilize transglutaminase
